{"source": "patent US20080125495A1", "about": "“Ameliorant For Renal Insufficiency” (MEIJI DAIRIES CORPORATION, priority 2004, published 2008)", "test_system": "diabetes model rats", "test": "Renal dysfunction parameters in STZ-induced diabetes model rats (kidney weight, serum creatinine, serum urea nitrogen, MDA in kidney)", "format": "in vivo, SD rats", "description": "To 8 weeks old male SD rats, 50 mg/kg of STZ (streptozotocin, manufactured by Wako Pure Chemical Industries, Ltd.) was intraperitoneally administered, thereby inducing diabetes. The diabetes model rats were divided into four groups: as therapeutic groups, 2,4,4-trimethyl-3(15-hydroxypentadecyl)-2-cyclohexen-1-one ([…]) synthesized by a method described in JP-A-2000-297034 was intraperitoneally administered once a day continuously for 4 or 8 weeks; and as controls, a non-therapeutic group with diabetes alone (Diabetic Control) and a control group without treatment were prepared. After 4 or 8 weeks, serum and both kidneys were removed from the rats. The right kidney was stored in a frozen state and the left kidney was subjected to formalin fixation.\nIncrease of kidney weight, elevation of serum creatinine level, and increase of MDA in kidney may be observed by renal dysfunction caused by diabetes.", "key": {"[1]": {"settings": "2 mg/kg i.p. once a day, 4 weeks after STZ administration"}, "[2]": {"settings": "2 mg/kg i.p. once a day, 8 weeks after STZ administration"}, "[3]": {"settings": "8 mg/kg i.p. once a day, 4 weeks after STZ administration"}, "[4]": {"settings": "8 mg/kg i.p. once a day, 8 weeks after STZ administration"}, "[5]": {"settings": "8 mg/kg, eighth week after STZ administration"}, "[6]": {"settings": "8 mg/kg, fourth week after STZ administration"}}}
{"smiles": "CC1=C(CCCCCCCCCCCCCCCO)C(C)(C)CCC1=O", "note": "[Compound 1, 2,4,4-trimethyl-3(15-hydroxypentadecyl)-2-cyclohexen-1-one]", "values": [{"measurement": "increase of MDA in kidney (in words)", "setting": "2 mg/kg", "value": "markedly suppressed"}, {"measurement": "Serum creatinine", "setting": "[1]", "value": "2.354 ± 0.254", "unit": "mg/dL"}, {"measurement": "Serum urea nitrogen", "setting": "[1]", "value": "51.00 ± 3.78", "unit": "mg/dL"}, {"measurement": "Weight of kidney", "setting": "[1]", "value": "1.33 ± 0.05", "unit": "g"}, {"measurement": "Serum creatinine", "setting": "[2]", "value": "2.504 ± 0.253", "unit": "mg/dL"}, {"measurement": "Serum urea nitrogen", "setting": "[2]", "value": "60.78 ± 5.34", "unit": "mg/dL"}, {"measurement": "Weight of kidney", "setting": "[2]", "value": "1.59 ± 0.04", "unit": "g"}, {"measurement": "elevation of serum creatinine level (in words)", "setting": "4 mg/kg, eighth week after STZ administration", "value": "tendency of the suppression"}, {"measurement": "increase of MDA in kidney (in words)", "setting": "8 mg/kg", "value": "markedly suppressed"}, {"measurement": "Serum creatinine", "setting": "[3]", "value": "1.004 ± 0.118", "unit": "mg/dL"}, {"measurement": "Serum urea nitrogen", "setting": "[3]", "value": "41.76 ± 3.60", "unit": "mg/dL"}, {"measurement": "Weight of kidney", "setting": "[3]", "value": "1.27 ± 0.07", "unit": "g"}, {"measurement": "Serum creatinine", "setting": "[4]", "value": "1.836 ± 0.228", "unit": "mg/dL"}, {"measurement": "Serum urea nitrogen", "setting": "[4]", "value": "53.69 ± 2.97", "unit": "mg/dL"}, {"measurement": "Weight of kidney", "setting": "[4]", "value": "1.33 ± 0.05", "unit": "g"}, {"measurement": "elevation of serum creatinine level (in words)", "setting": "[5]", "value": "markedly suppressed"}, {"measurement": "increase of kidney weight (in words)", "setting": "[5]", "value": "markedly suppressed"}, {"measurement": "elevation of serum creatinine level (in words)", "setting": "[6]", "value": "markedly suppressed"}, {"measurement": "elevation of serum urea nitrogen (in words)", "setting": "[6]", "value": "markedly suppressed"}, {"measurement": "increase of kidney weight (in words)", "setting": "rats to which the compound was administered, fourth week after STZ administration", "value": "suppressed"}]}
